Laboratory results as given in patent publication US20230174492A1, “SUBSTITUTED CONDENSED AZINES AS ANTHELMINTIC COMPOUNDS” (Bayer Animal Health GmbH, priority 2020, published 2023).

How the values were obtained:
Type in all cases: cell-based
[1] = test system: Nippostrongylus brasiliensis; assay: In Vitro Assay 3: Nippostrongylus brasiliensis (NIPOBR), acetylcholine esterase readout; conditions: adult worms, read-out: activity (reduction of AChE compared to negative control); for inhibition at 1 µg/mL: at 1 μg/ml; for inhibition at 10 µg/mL: at 10 μg/ml
Procedure: In Vitro Assay 3: Nippostrongylus brasiliensis (NIPOBR)
Adult Nippostrongylus brasiliensis are washed with saline buffer containing 100 U/ml penicillin, 0.1 mg/ml streptomycin and 2.5 μg/ml amphotericin B. Test compounds are dissolved in DMSO and worms are incubated in medium in a final concentration of 10 μg/ml (10 ppm) respectively 1 μg/ml (1 ppm). An aliquot of the medium is used to determine the acetylcholine esterase activity in comparison to a negative control. The principle of measuring acetylcholine esterase as readout for anthelmintic activity is described in Rapson et al (1986) and Rapson et al (1987).

[2] = biological target: D. immitis Slo-1 (Dirofilaria immitis, UniProt I0DFK5); assay: In Vitro Assay 2: D. immitis Slo-1, action at a recombinant D. immitis cell line (membrane potential, FLIPR)
Chain of D. immitis Slo-1 (I0DFK5 1-1119): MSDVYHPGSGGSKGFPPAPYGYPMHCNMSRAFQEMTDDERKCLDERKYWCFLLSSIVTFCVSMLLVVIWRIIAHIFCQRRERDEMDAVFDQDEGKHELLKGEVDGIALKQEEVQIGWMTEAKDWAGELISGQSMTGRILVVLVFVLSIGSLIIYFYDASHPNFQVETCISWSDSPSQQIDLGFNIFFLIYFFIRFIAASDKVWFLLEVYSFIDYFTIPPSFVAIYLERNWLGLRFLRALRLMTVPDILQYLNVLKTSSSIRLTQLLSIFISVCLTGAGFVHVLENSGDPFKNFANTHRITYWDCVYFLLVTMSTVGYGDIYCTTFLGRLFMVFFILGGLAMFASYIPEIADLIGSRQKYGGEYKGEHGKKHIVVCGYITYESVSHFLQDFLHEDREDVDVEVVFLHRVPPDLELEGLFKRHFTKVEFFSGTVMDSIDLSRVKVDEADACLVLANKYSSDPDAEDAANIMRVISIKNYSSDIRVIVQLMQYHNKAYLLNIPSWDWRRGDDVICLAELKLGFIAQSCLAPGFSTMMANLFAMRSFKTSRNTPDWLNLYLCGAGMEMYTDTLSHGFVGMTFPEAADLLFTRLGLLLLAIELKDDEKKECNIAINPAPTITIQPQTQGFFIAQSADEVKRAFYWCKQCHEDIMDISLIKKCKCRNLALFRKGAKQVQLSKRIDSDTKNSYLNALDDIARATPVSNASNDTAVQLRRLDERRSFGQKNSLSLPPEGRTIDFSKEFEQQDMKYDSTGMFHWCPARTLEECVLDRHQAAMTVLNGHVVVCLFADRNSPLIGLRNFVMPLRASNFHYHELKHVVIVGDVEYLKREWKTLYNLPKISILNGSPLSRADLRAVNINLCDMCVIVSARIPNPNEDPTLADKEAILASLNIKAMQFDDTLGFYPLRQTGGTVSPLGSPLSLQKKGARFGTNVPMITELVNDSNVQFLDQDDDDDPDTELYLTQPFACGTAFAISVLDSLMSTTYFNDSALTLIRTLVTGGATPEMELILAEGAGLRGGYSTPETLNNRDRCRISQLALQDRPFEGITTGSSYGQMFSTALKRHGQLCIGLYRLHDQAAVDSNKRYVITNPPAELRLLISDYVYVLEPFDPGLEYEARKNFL

[3] = test system: Dirofilaria immitis third-stage larvae; assay: In Vitro Assay 5: Dirofilaria immitis (DIROIM L4), motility; conditions: 72 h
[4] = test system: Nippostrongylus brasiliensis; assay: In Vitro Assay 3: Nippostrongylus brasiliensis (NIPOBR), acetylcholine esterase readout; conditions: read-out: activity (reduction of AChE compared to negative control)
[5] = test system: Dirofilaria immitis microfilariae; assay: In Vitro Assay 4: Dirofilaria immitis microfilariae (DIROIM L1), motility; conditions: 72 h

CN(C)c1c(NC(=O)C2CCOc3ccccc32)cnc2c(-c3cc(F)cc(F)c3F)cccc12 (racemic) [Example 5, N-(4-(Dimethylamino)-8-(2,3,5-trifluorophenyl)quinolin-3-yl)chroman-4-carboxamide]
inhibition at 1 µg/mL [1]: > 80% | inhibition at 10 µg/mL [1]: > 80% | EC50 [2]: 100 to 1000 nM | EC50 [3]: < 0.1 µg/mL | inhibition at 0.1 µg/mL [4]: > 80% | EC50 [5]: < 0.1 µg/mL

CN(C)c1c(NC(=O)C2CCc3ccccc32)cnc2c(-c3cc(F)cc(F)c3F)cccc12 (racemic) [Example 6, N-(4-(Dimethylamino)-8-(2,3,5-trifluorophenyl)quinolin-3-yl)-2,3-dihydro-1H-indene-1-carboxamide]
EC50 [2]: 100 to 1000 nM | EC50 [3]: < 0.1 µg/mL | EC50 [5]: < 0.1 µg/mL

O=C(Nc1cnc2c(-c3cc(F)cc(F)c3F)cccc2c1N1CCOCC1)C1CCOc2ccccc21 (racemic) [Example 7, N-(4-Morpholino-8-(2,3,5-trifluorophenyl)quinolin-3-yl)chroman-4-carboxamide]
inhibition at 1 µg/mL [1]: > 80% | inhibition at 10 µg/mL [1]: > 80% | EC50 [2]: 10 to 100 nM | EC50 [3]: < 0.1 µg/mL | EC50 [5]: < 0.1 µg/mL

CCc1c(NC(=O)C2CCOc3ccccc32)cnc2c(-c3cc(F)cc(F)c3F)cccc12 (racemic) [Example 8, N-(4-Ethyl-8-(2,3,5-trifluorophenyl)quinolin-3-yl)chroman-4-carboxamide]
inhibition at 1 µg/mL [1]: > 80% | inhibition at 10 µg/mL [1]: > 80% | EC50 [2]: 100 to 1000 nM | EC50 [3]: < 0.1 µg/mL

O=C(Nc1cnc2c(-c3cc(F)cc(F)c3F)cccc2c1C1CCOCC1)C1CCOc2ccccc21 (racemic) [Example 9, N-(4-(Tetrahydro-2H-pyran-4-yl)-8-(2,3,5-trifluorophenyl)quinolin-3-yl)chroman-4-carboxamide]
inhibition at 1 µg/mL [1]: > 80% | inhibition at 10 µg/mL [1]: > 80% | EC50 [2]: 100 to 1000 nM | EC50 [3]: < 0.1 µg/mL | inhibition at 0.1 µg/mL [4]: > 80% | EC50 [5]: < 0.1 µg/mL

O=C(Nc1cnc2c(-c3cc(F)cc(F)c3F)c(F)ccc2c1C1CCOCC1)C1CCOc2ccccc21 (racemic) [Example 10, N-(7-Fluoro-4-(tetrahydro-2H-pyran-4-yl)-8-(2,3,5-trifluorophenyl)quinolin-3-yl)chroman-4-carboxamide]
inhibition at 1 µg/mL [1]: > 80% | inhibition at 10 µg/mL [1]: > 80% | EC50 [2]: 10 to 100 nM | EC50 [3]: < 0.1 µg/mL | inhibition at 0.1 µg/mL [4]: > 80% | EC50 [5]: < 0.1 µg/mL

CN(C)c1c(NC(=O)C2CCOc3ccccc32)cnc2c(-c3cc(F)cc(F)c3F)c(F)ccc12 (racemic) [Example 11, N-(4-(dimethylamino)-7-fluoro-8-(2,3,5-trifluorophenyl)quinolin-3-yl)chroman-4-carboxamide]
inhibition at 1 µg/mL [1]: > 80% | inhibition at 10 µg/mL [1]: > 80% | EC50 [2]: 10 to 100 nM | EC50 [3]: < 0.1 µg/mL | inhibition at 0.1 µg/mL [4]: > 80% | EC50 [5]: < 0.1 µg/mL

CN(C)c1c(NC(=O)C2CCc3ccccc32)cnc2c(-c3cc(F)cc(F)c3F)c(F)ccc12 (racemic) [Example 12, N-(4-(dimethylamino)-7-fluoro-8-(2,3,5-trifluorophenyl)quinolin-3-yl)-2,3-dihydro-1H-indene-1-carboxamide]
EC50 [2]: 100 to 1000 nM | EC50 [3]: < 0.1 µg/mL | EC50 [5]: < 0.1 µg/mL

CCc1c(NC(=O)C2CCOc3ccccc32)cnc2c(-c3cc(F)cc(F)c3F)c(F)ccc12 (racemic) [Example 13, N-(4-ethyl-7-fluoro-8-(2,3,5-trifluorophenyl)quinolin-3-yl)chromane-4-carboxamide]
inhibition at 1 µg/mL [1]: > 80% | inhibition at 10 µg/mL [1]: > 80% | EC50 [2]: 10 to 100 nM | EC50 [3]: < 0.1 µg/mL | inhibition at 0.1 µg/mL [4]: > 80% | EC50 [5]: < 0.1 µg/mL

O=C(Nc1cnc2c(-c3cc(Cl)cc(Cl)c3)cccc2c1C1CCOCC1)C1CCc2ccccc21 (racemic) [Example 14, N-(8-(3,5-dichlorophenyl)-4-(tetrahydro-2H-pyran-4-yl)quinolin-3-yl)-2,3-dihydro-1H-indene-1-carboxamide]
inhibition at 1 µg/mL [1]: > 80% | inhibition at 10 µg/mL [1]: > 80% | EC50 [2]: 100 to 1000 nM | EC50 [3]: < 0.1 µg/mL | inhibition at 0.1 µg/mL [4]: > 80% | EC50 [5]: < 0.1 µg/mL

O=C(Nc1cnc2c(-c3cc(Cl)cc(Cl)c3)c(F)ccc2c1N1CCOCC1)C1CCOc2ccccc21 (racemic) [Example 15, N-(8-(3,5-dichlorophenyl)-7-fluoro-4-morpholinoquinolin-3-yl)chromane-4-carboxamide]
inhibition at 1 µg/mL [1]: > 80% | inhibition at 10 µg/mL [1]: > 80% | EC50 [2]: 10 to 100 nM | EC50 [3]: < 0.1 µg/mL | EC50 [5]: < 0.1 µg/mL

CCc1c(NC(=O)C2CCOc3ccccc32)cnc2c(-c3cc(Cl)cc(Cl)c3)c(F)ccc12 (racemic) [Example 16, N-(8-(3,5-dichlorophenyl)-4-ethyl-7-fluoroquinolin-3-yl)chromane-4-carboxamide]
inhibition at 1 µg/mL [1]: > 80% | inhibition at 10 µg/mL [1]: > 80% | EC50 [2]: 100 to 1000 nM | EC50 [3]: < 0.1 µg/mL | inhibition at 0.1 µg/mL [4]: > 80% | EC50 [5]: < 0.1 µg/mL

CN(C)c1c(NC(=O)C2CCOc3ccccc32)cnc2c(-c3cccc(Cl)c3Cl)c(F)ccc12 (racemic) [Example 17, N-(8-(2,3-dichlorophenyl)-4-(dimethylamino)-7-fluoroquinolin-3-yl)chroman-4-carboxamide]
inhibition at 1 µg/mL [1]: > 80% | inhibition at 10 µg/mL [1]: > 80% | EC50 [2]: 100 to 1000 nM | EC50 [3]: < 0.1 µg/mL | inhibition at 0.1 µg/mL [4]: > 80% | EC50 [5]: < 0.1 µg/mL

CN(C)c1c(NC(=O)C2CCc3ccccc32)cnc2c(-c3cccc(Cl)c3Cl)c(F)ccc12 (racemic) [Example 18, N-(8-(2,3-dichlorophenyl)-4-(dimethylamino)-7-fluoroquinolin-3-yl)-2,3-dihydro-1H-indene-1-carboxamide]
inhibition at 1 µg/mL [1]: > 80% | inhibition at 10 µg/mL [1]: > 80% | EC50 [2]: 100 to 1000 nM | EC50 [3]: < 0.1 µg/mL | EC50 [5]: < 0.1 µg/mL

CN(C)c1c(NC(=O)[C@H]2CCOc3ccccc32)cnc2c(-c3cc(F)cc(F)c3F)cccc12 [Example 1, (S)-N-(4-(dimethylamino)-8-(2,3,5-trifluorophenyl)quinolin-3-yl)chromane-4-carboxamide]
inhibition at 1 µg/mL [1]: > 80% | inhibition at 10 µg/mL [1]: > 80% | EC50 [2]: 100 to 1000 nM | EC50 [3]: < 0.1 µg/mL | EC50 [5]: < 0.1 µg/mL

CN(C)c1c(NC(=O)[C@@H]2CCc3ccccc32)cnc2c(-c3cc(F)cc(F)c3F)cccc12 [Example 4, (R)-N-(4-(dimethylamino)-8-(2,3,5-trifluorophenyl)quinolin-3-yl)-2,3-dihydro-1H-indene-1-carboxamide]
EC50 [2]: 100 to 1000 nM | EC50 [3]: < 0.1 µg/mL | EC50 [5]: < 0.1 µg/mL
